One may read the LOAEL as the lowest tested level that showed an adverse finding. Usually NOAEL stands for the highest dose or exposure tested at which no adverse effect was seen. The term LD50 denotes the dose expected to kill half of the subjects tested.

One data set concerns Gallus sp. The settings on record: repeat dose other; oral.
In data set [1] the test system is Mus musculus. The settings on record: subchronic; oral; M/F; nephropathy, increased liver weight, hematological alterations, and clinical effects.
Data set [2] relates to Mus musculus. The settings on record: oral, CD1.
The subject of data set [3] is Rattus norvegicus. The note with it: uterotrophic; duration: 3 days; injection; subcutaneous; Active.
The subject of data set [4] is Rattus norvegicus. The data set can be described thus: LD0; higher = less toxic. The note with it: acute.
Data set [5] deals with Canidae. The settings on record: oral, Beagle.
In data set [6] the test system is Mus musculus. The settings on record: acute; oral; NMRI.
The test system of another data set is Oryctolagus sp. The note with it: acute, New Zealand.
The subject of data set [7] is Rattus norvegicus.
Data set [8] has as its system Canidae. The note with it: oral, Beagle. The source holds these as a separate data set.
For data set [9], the system named is Homo sapiens. The note with it: clinical; duration: 10 weeks; oral; Inhibition of acetylcholinesterase activity.
For data set [10], the system named is Rattus norvegicus. The note with it: short-term; duration: 28 days; oral; gavage; Wistar.
Data set [11] deals with Homo sapiens. The note with it: clinical; oral; M/F; radioactive iodide uptake inhibition (raiu) in the thyroid.
Data set [12] has as its system Rattus norvegicus. The note with it: repeat dose other; oral.
For data set [13], the system named is Rattus norvegicus. The note with it: chronic, M.
The subject of data set [14] is Homo sapiens. The settings on record: clinical, inhalation, M/F.
In data set [15] the test system is Rattus norvegicus. The settings on record: for LOAEL: M; for NOAEL: M/F.
Data set [16] relates to Mus musculus. The note with it: repeat dose other; oral.
The mark [17] stands for this setting: chronic, duration: 1 years, diet, M/F, Increased plasma cholesterol (males).

Consider `[Cu+].[Cu+].[O-2]` [Cuprous oxide], for which, in the data set with Gallus sp., the LOAEL was 61.7 mg/kg-day and the NOAEL stood at 47 mg/kg-day.
Take `c1ccc2c(c1)-c1cccc3cccc-2c13` [Fluoranthene]: in the data set with Mus musculus [1], the LOAEL was 250 mg/kg-day and the no observed adverse effect level (NOAEL) was determined as 125 mg/kg-day. For the same molecule, the LOAEL with Mus musculus [2] (subchronic, duration: 90 days, gavage, M/F, hepatic) came to 125 mg/kg-day. Further, in the data set on Rattus norvegicus [3], the LEL turned out to be 10 mg/kg-day.
The molecule `CCC(C#N)CC#N` (stereo not drawn) [2-Ethylbutanedinitrile] yielded an LD0 in the data set with Rattus norvegicus [4] (oral, gavage, Sprague-Dawley) below 500 mg/kg.
For `CC(O)CN(CC(C)O)c1nc(Nc2ccc(S(=O)(=O)[O-])cc2)nc(Nc2ccc(/C=C/c3ccc(Nc4nc(Nc5ccc(S(=O)(=O)[O-])cc5)nc(N(CC(C)O)CC(C)O)n4)cc3S(=O)(=O)[O-])c(S(=O)(=O)[O-])c2)n1.[Na+].[Na+].[Na+].[Na+]` (stereo not drawn), the LC50 in the data set with Canidae [5] (acute) was above 500 mg/kg; in the data set on Mus musculus [6], above 1000 mg/kg; with Oryctolagus sp. (oral), above 1000 mg/kg. Also, in the data set on Rattus norvegicus [7] (acute, oral, Wistar), the LD50 is above 2500 mg/kg. For the same molecule, the NOAEL is 1020 mg/kg-day with Rattus norvegicus [7] (short-term, duration: 5 days, oral, gavage, F, Wistar); 1020 mg/kg-day in the data set on Rattus norvegicus [7] (short-term, duration: 5 days, oral, gavage, M, Wistar); 300 mg/kg-day with Rattus norvegicus [7] (subchronic, duration: 13 weeks, oral, gavage, F, Wistar); 300 mg/kg-day in the data set with Rattus norvegicus [7] (subchronic, duration: 13 weeks, oral, gavage, M, Wistar).
Regarding `CC[C@@H](C(=O)O)[C@@H]1O[C@@H]([C@@H](C)[C@H](O)[C@H](C)C(=O)[C@H](CC)[C@H]2O[C@]3(C=C[C@@H](O)[C@]4(CC[C@@](C)([C@H]5CC[C@](O)(CC)[C@H](C)O5)O4)O3)[C@H](C)C[C@@H]2C)[C@@H](C)C[C@@H]1C` [Narasin], the NOAEL in the data set with Canidae [8] (chronic, duration: 1 years, capsule, M/F, Minimal to slight peripheral nerve changes & focal skeletal muscle degeneration) was found to be 0.5 mg/kg-day.
Molecule `CC(C)CC(C)(O)C#CC(C)(O)CC(C)C` (stereo not drawn) [2,4,7,9-Tetramethyl-5-decyne-4,7-diol] had an LOAEL with Canidae [5] (chronic, duration: 130 days) of 200 mg/kg-day. The 50% lethal dose (LD50) in the data set with Oryctolagus sp. (dermal, occlusive) is above 1000 mg/kg; in the data set on Rattus norvegicus [7] (acute, dermal), above 2000 mg/kg; with Rattus norvegicus [7] (acute, oral, Sprague-Dawley), above 500 mg/kg. The LC50 in the data set on Rattus norvegicus [7] (acute, Inhalation) was above 20 µg/mL. For the same molecule, the no-observed-adverse-effect level (NOAEL) was 500 mg/kg-day in the data set with Rattus norvegicus [7] (reproduction developmental, oral, diet, Sprague-Dawley, generation: F0); 500 mg/kg-day in the data set on Rattus norvegicus [7] (reproduction developmental, oral, diet, Sprague-Dawley, generation: F1); 5000 ppm in the data set on Rattus norvegicus [7] (short-term, duration: 28 days, oral, diet).
In the case of `Cl.c1ccc([C@H]2CN3CCSC3=N2)cc1` [Levamisole hydrochloride], the LOEL is 1.25 mg/kg-day in the data set on Canidae [8] (chronic, duration: 14 months, capsule, Re-emergence of haemolytic anaemia) and 1.25 mg/kg-day with Canidae [8] (immunotoxicology, duration: 14 months, capsule, Re-emergence of haemolytic anaemia).
Take `COP(=O)(OC)C(O)C(Cl)(Cl)Cl` (stereo not drawn) [Trichlorfon]: in the data set on Homo sapiens [9], the LOEL came out at 0.2 mg/kg-day.
For `O=S(=O)([O-])c1cc(Nc2nc(Nc3ccccc3)nc(N3CCOCC3)n2)ccc1C=Cc1ccc(Nc2nc(Nc3ccccc3)nc(N3CCOCC3)n2)cc1S(=O)(=O)[O-].[Na+].[Na+]`, the LD50 with Rattus norvegicus [7] (acute, oral, Sprague-Dawley) is 7000 mg/kg; with Rattus norvegicus [7] (acute, oral, gavage, Sprague-Dawley), above 5000 mg/kg. For the same molecule, the NOAEL with Rattus norvegicus [7] (chronic, duration: 24 months, oral, diet, F, Wistar) was 791 mg/kg-day; in the data set on Rattus norvegicus [7] (chronic, duration: 24 months, oral, diet, M, Wistar) it was 524 mg/kg-day; in the data set with Rattus norvegicus [7] (short-term, duration: 14 days, oral, gavage, F, Wistar) it was 1000 mg/kg-day; with Rattus norvegicus [7] (short-term, duration: 14 days, oral, gavage, M, Wistar), 1000 mg/kg-day; with Rattus norvegicus [10] it was 825 mg/kg-day. The same molecule gave an LD0 in the data set with Rattus norvegicus [4] (dermal, semiocclusive, Wistar) above 2000 mg/kg.
For the molecule `[O-][Cl+3]([O-])([O-])[O-]` [Perchlorate], in the data set with Homo sapiens [11], the LOEL was 0.02 mg/kg-day and the NOEL came to 0.007 mg/kg-day.
In the data set with Canidae [8] (setting [17]), `N#Cc1c(N)nc(NC2CC2)nc1N` [Dicyclanil] returned an LOEL of 4.4 mg/kg-day and an NOEL of 0.71 mg/kg-day.
As for `C1COCCO1` [1,4-Dioxane], the LOAEL in the data set on Rattus norvegicus [12] turned out to be 1 mg/kg-day; in the data set with Rattus norvegicus [13] (inhalation, atrophy and respiratory metaplasia of the olfactory epithelium) it was 180 mg/m3; with Rattus norvegicus [15] (chronic, duration: 104 weeks, inhalation, whole body, Fischer 344, respiratory), 180 mg/m3. Further, the no-observed-adverse-effect level (NOAEL) was determined as 0.5 mg/kg-day in the data set on Rattus norvegicus [12]; 9.6 mg/kg-day with Rattus norvegicus [13] (oral, liver and kidney toxicity); 72.1 mg/m3 in the data set on Homo sapiens [14] (duration: 2 hours, ocular); 9.6 mg/kg-day with Rattus norvegicus [15] (chronic, duration: 716 days, oral, drinking water, Sherman Wistar, hepatic); 516 mg/kg-day in the data set with Rattus norvegicus [15] (developmental, duration: 9 days, oral, gavage, Sprague-Dawley, developmental); 52 mg/kg-day in the data set with Rattus norvegicus [15] (subchronic, duration: 13 weeks, oral, drinking water, Fischer 344, hepatic).
For `Cc1ccccc1` [1-Methylbenzene], the LOAEL in the data set with Mus musculus [16] amounted to 260 mg/kg-day; with Homo sapiens [14] (duration: 20 minutes, neurological), 56.5 mg/m3; with Rattus norvegicus [15] (acute, duration: 1 days, oral, gavage, Long-Evans, neurological), 250 mg/kg-day. Besides, the NOAEL in the data set on Mus musculus [16] is 26 mg/kg-day; with Mus musculus [2] (short-term, duration: 28 days, drinking water, M, immunological), 22 mg/kg-day.

The values above are taken from EPA's ToxValDB 9.5.
